Laboratory results from patent US20260226101A1, “PEPTIDE WITH ANTI-INFLAMMATORY AND ANTI-MICROBIAL ACTIVITY” (priority 2023, published 2026).
Ends that are not written are not given here.

Key:
[1] = in vitro; format: cell-based, murine; conditions: mouse
Procedure: Cell viability of synthetic peptides on the growth of RAW264.7 cells was measured using the methyl thiazolyl tetrazolium (MTT) assay after 48 h. Briefly, exponentially growing macrophages RAW264.7 cells were mechanically scraped, plated at a density of 7×10^3 cells in 100 μl were seeded into each well of a 96-well plate then incubated for 12 h at 37° C. under 5% CO2, and then the cells are treated with test peptides: IS 111 ([…]) or dexamethasone ([…]) cells were incubated at 37° C. in the presence of 5% CO2 for 42 h. After incubation, the morphology of cells was examined under a microscope. Following incubation, MTT was added to the cells (20 μL at 5 mg/mL MTT dissolved in 1×PBS) and incubated for 4 hours in the presence of 5% CO2 at 37° C. Formazan crystals were dissolved by the addition of 100 μL of 100% DMSO per well. Plates were then gently swirled for 5 min at room temperature to dissolve the precipitate. Absorbance was monitored at 575 nm using a microplate reader. Maximum cytotoxicity (100%) was determined by cells incubated with 1% Triton X-100; PBS was used as a negative control. Cells without treatment were considered as control. The average absorbance for each sample group was used to evaluate cell viability.
Optical density (O.D.) was calculated as the difference between the absorbance at the reference wavelength and that at the test wavelength. The relative cell viability was determined by the amount of MTT converted to the insoluble formazan salt. The data were expressed as the mean percentage of viable cells when compared with untreated cells (control). The half maximal growth inhibitory concentration (IC50) value was calculated from the line equation of the dose-dependent curve of each compound. The results were compared with the cytotoxic activity of dexamethasone, a known anti-inflammatory drug. […] Percentages of cell viability and LC50 of cells were calculated: Percent cell viability was calculated as (O.D. of drug-treated sample/control O.D.)×100. The data were expressed as percent cell viability compared with control (dimethyl sulfoxide/NS). The experiment was carried out in four samples of each concentration.
The percentages of cell viability and LC50 of cells were calculated by using the formula below.
Where Absorbance control is the DMSO 0.1%-treated cell absorbance, and Absorbance sample is the test sample-treated cell absorbance. LC50 values were derived from dose-response curves, and data were expressed as the mean of three independent experiments. Statistical analyses involved Student's t-test and one-way ANOVA.
The test peptide IS 111 cytotoxic effects on RAW 264.7 mouse […] were determined by MTT assay. […] Cell viability was measured by MTT assay based on the conversion of yellow tetrazolium salt to form a purple formazan product. The viability of the RAW 264.7 cells can be seen on table 21.

[2] = test system: Klebsiella pneumoniae ATCC 700603; experiment: Time-kill assay; format: cell-based; conditions: K. pneumoniae
Procedure: The survival of bacteria, time kill efficacy assay of IS 111 was further evaluated for activity against bacterial strain mentioned above according to CLSI reference method, with slightly modification. MICs were determined by broth microdilution assay as described above. […] Test tubes of MHB without test compound IS 111 were used as vehicle controls. Overnight cultures of the bacterial strains at cell densities of approximately 1×10^8 CFU/ml were used to inoculate both test and control tubes. The standard tube dilution method was opted to evaluate the time-kill efficacy of bacteria. Bacterial inoculum (1 mL) was diluted by adding 9 mL sterile saline solution and serially diluted up to 10^−3. […] 100 μL incubated suspension was transferred on the agar plates and spread through the spreader. Colony counts were performed after 24 h incubation at 37° C. Plates with 10-300 colonies were used for these counts, and the kill rate was determined by plotting log 10 viable counts (CFU/ml) against time. Bactericidal activity was defined as a ≥3 log 10 decreases in CFU/ml of the initial microbial population, while bacteriostatic activity was defined was defined as a <3 log 10 decrease in CFU/ml. The assay was performed in triplicate [Olufunmiso O Olajuyigbe et al., 2015; Sutthiwan Thammawat et al., 2017]
The time-kill kinetics antibacterial study of the Peptide IS 111 was carried out to assess the killing rate of the compound within a given contact time. The survival of bacteria, time kill efficacy assay of IS 111 was further evaluated for activity against Escherichia coli ATCC 8739 and Staphylococcus aureus ATCC 6538, Pseudomonas aeruginosa ATCC 9027 and Klebsiella pneumoniae ATCC 700603 according to CLSI reference method, with slightly modification. MICs were determined by broth microdilution assay as described above. […] 10. Test tubes of MHB without test compound Peptide IS 111 were used as vehicle controls. Overnight cultures of the bacterial strains at cell densities of approximately 1×10^6 CFU/ml were used to inoculate both test and control tubes.
After each interval, ten-fold dilutions were prepared with normal saline, and 100 μL incubated suspension was transferred on the agar plates and spread through the spreader. Colony counts were performed after 24 h incubation at 37° C. Plates with 10-300 colonies were used for these counts, and the kill rate was determined by plotting log 10 viable counts (CFU/ml) against time. Bactericidal activity was defined as a ≥3 log 10 decrease in CFU/ml of the initial microbial population, while bacteriostatic activity was defined as a <3 log 10 decrease in CFU/ml. The assay was performed in triplicate. The proportion of cells surviving at 60 min was calculated, as was the mean and standard deviation. Proportions of surviving cells were compared using Student's 2-tailed t-test, assuming unequal variance and differences were considered significant where p≤0.05.

Substance: FAKKFAK [IS 111, Phe-Ala-Lys-Lys-Phe-Ala-Lys]
- viability at 48 h, 1.5625 μg/mL [1]: 84.5%
- viability at 48 h, 3.125 μg/mL [1]: 91.5%
- viability at 48 h, 6.25 μg/mL [1]: 90.2%
- viability at 48 h, 12.5 μg/mL [1]: 99.7%
- viability at 48 h, 25 μg/mL [1]: 96.4%
- viability at 48 h, 50 μg/mL [1]: 95%
- viability at 48 h, 100 μg/mL [1]: 91.4%
- Viable count ([2]; 0.5 × MIC, 0 h): 4.8 ± 0.50 1 × 10^5 CFU/ml
- Viable count ([2]; 0.5 × MIC, 1 h): 4.2 ± 0.35 1 × 10^5 CFU/ml
- Viable count ([2]; 0.5 × MIC, 2 h): 3.4 ± 0.55 1 × 10^5 CFU/ml
- Viable count ([2]; 0.5 × MIC, 3 h): 2.9 ± 0.45 1 × 10^5 CFU/ml
- Viable count ([2]; 0.5 × MIC, 4 h): 2.1 ± 0.48 1 × 10^5 CFU/ml
- Viable count ([2]; 0.5 × MIC, 5 h): 1.7 ± 0.30 1 × 10^5 CFU/ml
- Viable count ([2]; 0.5 × MIC, 12 h): 1.5 ± 0.33 1 × 10^5 CFU/ml
- Reduction in viability ([2]; 0.5×MIC (3.13 μg/ml), 24 h): < 1 log 10 CFU/ml
- Type of activity (bacteriostatic or bactericidal) ([2]; 0.5×MIC, 24 h): bacteriostatic
- Viable count ([2]; 0.5×MIC, 24 h): 0.8 ± 0.13 1 × 10^5 CFU/ml
- Viable count ([2]; 1 × MIC, 0 h): 5.1 ± 0.23 1 × 10^5 CFU/ml
- Viable count ([2]; 1 × MIC, 1 h): 4.0 ± 0.18 1 × 10^5 CFU/ml
- Viable count ([2]; 1 × MIC, 2 h): 1.9 ± 0.40 1 × 10^5 CFU/ml
- Viable count ([2]; 1 × MIC, 3 h): 1.2 ± 0.15 1 × 10^5 CFU/ml
- Viable count ([2]; 1 × MIC, 4 h): 0.6 ± 0.03 1 × 10^5 CFU/ml
- Viable count ([2]; 1 × MIC, 5 h): 0.5 ± 0.05 1 × 10^5 CFU/ml
- Viable count ([2]; 1 × MIC, 12 h): 0.2 ± 0.15 1 × 10^5 CFU/ml
- Viable count ([2]; 1 × MIC, 24 h): 0 1 × 10^5 CFU/ml
- Time to bacteriostatic activity ([2]; 1×MIC (6.25 μg/ml)): ≤ 24 h
- Viable count ([2]; 5 × MIC, 0 h): 5.6 ± 0.18 1 × 10^5 CFU/ml
- Viable count ([2]; 5 × MIC, 1 h): 1.8 ± 0.13 1 × 10^5 CFU/ml
- Viable count ([2]; 5 × MIC, 2 h): 0.9 ± 0.08 1 × 10^5 CFU/ml
- Viable count ([2]; 5 × MIC, 3 h): 0.6 ± 0.08 1 × 10^5 CFU/ml
- Viable count ([2]; 5 × MIC, 4 h): 0.4 ± 0.05 1 × 10^5 CFU/ml
- Viable count ([2]; 5 × MIC, 5 h): 0 1 × 10^5 CFU/ml
- Viable count ([2]; 5 × MIC, 12 h): 0 1 × 10^5 CFU/ml
- Viable count ([2]; 5 × MIC, 24 h): 0 1 × 10^5 CFU/ml
- Time to bacteriostatic activity ([2]; 5×MIC (31.25 μg/ml)): ≤ 5 h
